Source: the NIST ThermoML archive (doi:10.1016/j.fluid.2016.08.002)

Experiment: xn = mol fraction of the nth substance listed
Conditions: Gas, Vibrating tube method

S [hydrogen sulfide] + C
Conditions	mass density [kg/m3]
252.89 K, 10727 kPa, x2 = 0.8197	209.51
252.89 K, 11063 kPa, x2 = 0.8197	217.25
252.89 K, 11429 kPa, x2 = 0.8197	224.63
252.9 K, 9948 kPa, x2 = 0.8197	181.75
252.9 K, 10181 kPa, x2 = 0.8197	191.68
252.9 K, 10440 kPa, x2 = 0.8197	200.58
252.9 K, 11825 kPa, x2 = 0.8197	231.88
252.9 K, 12251 kPa, x2 = 0.8197	239.02
252.91 K, 9089 kPa, x2 = 0.8197	146
252.91 K, 9296 kPa, x2 = 0.8197	153.9
252.91 K, 9508 kPa, x2 = 0.8197	162.6
252.91 K, 9727 kPa, x2 = 0.8197	172.12
252.91 K, 12717 kPa, x2 = 0.8197	246.1
252.92 K, 13223 kPa, x2 = 0.8197	253.09
252.92 K, 13782 kPa, x2 = 0.8197	260.02
252.94 K, 1010 kPa, x2 = 0.714	10.45
252.94 K, 14392 kPa, x2 = 0.8197	266.89
252.95 K, 1513 kPa, x2 = 0.714	16.11
252.95 K, 15070 kPa, x2 = 0.8197	273.89
252.96 K, 508 kPa, x2 = 0.714	5.18
252.97 K, 15829 kPa, x2 = 0.8197	280.91
252.98 K, 16314 kPa, x2 = 0.8197	285.18
252.99 K, 16702 kPa, x2 = 0.8197	288.37
253 K, 2008 kPa, x2 = 0.714	22.87
253 K, 21010 kPa, x2 = 0.8197	317.91
253 K, 21473 kPa, x2 = 0.8197	320.52
253 K, 21973 kPa, x2 = 0.8197	323.2
253 K, 22531 kPa, x2 = 0.8197	326.01
253 K, 22822 kPa, x2 = 0.8197	327.46
253 K, 23125 kPa, x2 = 0.8197	329.05
253.01 K, 17275 kPa, x2 = 0.8197	293.02
253.01 K, 20084 kPa, x2 = 0.8197	312.27
253.01 K, 20574 kPa, x2 = 0.8197	315.19
253.01 K, 23774 kPa, x2 = 0.8197	332.07
253.01 K, 24145 kPa, x2 = 0.8197	333.77
253.02 K, 2407 kPa, x2 = 0.714	28.16
253.02 K, 17701 kPa, x2 = 0.8197	296.11
253.02 K, 18537 kPa, x2 = 0.8197	302.29
253.02 K, 19009 kPa, x2 = 0.8197	305.49
253.02 K, 19564 kPa, x2 = 0.8197	309.06
253.02 K, 24553 kPa, x2 = 0.8197	335.64
253.02 K, 25031 kPa, x2 = 0.8197	337.77
253.03 K, 225 kPa, x2 = 0.8197	2.1
253.03 K, 18070 kPa, x2 = 0.8197	299
253.03 K, 25582 kPa, x2 = 0.8197	340.15
253.04 K, 26249 kPa, x2 = 0.8197	342.94
253.05 K, 472 kPa, x2 = 0.8197	4.43
253.05 K, 26980 kPa, x2 = 0.714	414.51
253.06 K, 26459 kPa, x2 = 0.714	412.74
253.06 K, 27510 kPa, x2 = 0.8197	348.27
253.07 K, 1105 kPa, x2 = 0.8197	10.58
253.07 K, 23585 kPa, x2 = 0.714	402.01
253.07 K, 26760 kPa, x2 = 0.8197	345.19
253.07 K, 27152 kPa, x2 = 0.8197	346.63
253.07 K, 27494 kPa, x2 = 0.714	416.29
253.07 K, 28062 kPa, x2 = 0.8197	350.41
253.08 K, 1496 kPa, x2 = 0.8197	14.53
253.08 K, 2006 kPa, x2 = 0.8197	20.39
253.08 K, 28543 kPa, x2 = 0.8197	352.25
253.08 K, 28966 kPa, x2 = 0.8197	353.85
253.08 K, 29496 kPa, x2 = 0.8197	355.79
253.08 K, 30039 kPa, x2 = 0.8197	357.73
253.09 K, 23043 kPa, x2 = 0.714	399.91
253.09 K, 24033 kPa, x2 = 0.714	403.73
253.09 K, 25963 kPa, x2 = 0.714	410.91
